In PMC7002685, “Inhibition of vascular calcification by inositol phosphates derivatized with ethylene glycol oligomers” (Nature Communications, 2020):

Experiments:
Phosphodiesterase PDE3 = target: T1, Phosphodiesterase PDE3 (Homo sapiens, UniProt Q14432); assay: Off-target 152000; format: biochemical
T1 construct: purchased Eurofins Panlabs Discovery Services Taiwan, Ltd
Method: (§1) The potential off-target activity of 10 µM (OEG2)2-IP4 was assessed against a panel of 87 enzymes, receptors, or ion channels that are used in standard safety pharmacology screens.
(§2) 3.2. Off-target screening assay
The experiments were conducted by a contract research organization (Eurofins Panlabs Discovery
Services Taiwan, Ltd.) and details on the respective assays can be retrieved via the catalog number
provided in Supplementary Table 11 from the company’s webpage
(§3) (https://www.eurofinsdiscoveryservices.com/). […]

Histamine H2 = target: T2, Histamine H2 (Homo sapiens, UniProt P25021); assay: Off-target 239710; format: binding
T2 construct: purchased Eurofins Panlabs Discovery Services Taiwan, Ltd
Method: as §1, §2
The experiments were conducted by a contract research organization (Eurofins Panlabs Discovery Services Taiwan, Ltd.) and details on the respective assays can be retrieved via the catalog number provided in Supplementary Table 11 from the company’s webpage
as §3
At sacrifice the left tibia of animals of the rat model with dietary adenine/high-phosphate-induced uremia and VC was collected, fixed with 70% v/v EtOH and embedded in methyl methacrylate. The trabecular bone compartment is known to be the most metabolic active i.e. actively re-structured bone compartment in CKD. Therefore, histomorphometric and micro-computed tomography (µCT) analysis of bone was performed on the trabecular compartment. Tibial sections were Goldner-stained for histomorphometric analysis of the proximal metaphysis using the AxioVision Release 4.5 software, as […]
described previously5. […]

vascular calcification = assay: Vitamin D3 (oral) + warfarin diet rat model of VC

T2 sequence (P25021 whole entry): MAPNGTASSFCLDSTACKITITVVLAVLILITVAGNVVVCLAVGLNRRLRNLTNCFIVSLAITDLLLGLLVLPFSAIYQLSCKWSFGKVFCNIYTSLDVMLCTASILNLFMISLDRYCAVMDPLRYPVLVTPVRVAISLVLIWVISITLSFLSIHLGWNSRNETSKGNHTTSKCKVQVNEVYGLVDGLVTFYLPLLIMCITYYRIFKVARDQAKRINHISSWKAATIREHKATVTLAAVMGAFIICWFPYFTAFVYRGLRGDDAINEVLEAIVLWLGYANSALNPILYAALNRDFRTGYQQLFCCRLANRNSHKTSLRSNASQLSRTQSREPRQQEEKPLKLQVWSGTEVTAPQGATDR
T1 sequence (Q14432 whole entry): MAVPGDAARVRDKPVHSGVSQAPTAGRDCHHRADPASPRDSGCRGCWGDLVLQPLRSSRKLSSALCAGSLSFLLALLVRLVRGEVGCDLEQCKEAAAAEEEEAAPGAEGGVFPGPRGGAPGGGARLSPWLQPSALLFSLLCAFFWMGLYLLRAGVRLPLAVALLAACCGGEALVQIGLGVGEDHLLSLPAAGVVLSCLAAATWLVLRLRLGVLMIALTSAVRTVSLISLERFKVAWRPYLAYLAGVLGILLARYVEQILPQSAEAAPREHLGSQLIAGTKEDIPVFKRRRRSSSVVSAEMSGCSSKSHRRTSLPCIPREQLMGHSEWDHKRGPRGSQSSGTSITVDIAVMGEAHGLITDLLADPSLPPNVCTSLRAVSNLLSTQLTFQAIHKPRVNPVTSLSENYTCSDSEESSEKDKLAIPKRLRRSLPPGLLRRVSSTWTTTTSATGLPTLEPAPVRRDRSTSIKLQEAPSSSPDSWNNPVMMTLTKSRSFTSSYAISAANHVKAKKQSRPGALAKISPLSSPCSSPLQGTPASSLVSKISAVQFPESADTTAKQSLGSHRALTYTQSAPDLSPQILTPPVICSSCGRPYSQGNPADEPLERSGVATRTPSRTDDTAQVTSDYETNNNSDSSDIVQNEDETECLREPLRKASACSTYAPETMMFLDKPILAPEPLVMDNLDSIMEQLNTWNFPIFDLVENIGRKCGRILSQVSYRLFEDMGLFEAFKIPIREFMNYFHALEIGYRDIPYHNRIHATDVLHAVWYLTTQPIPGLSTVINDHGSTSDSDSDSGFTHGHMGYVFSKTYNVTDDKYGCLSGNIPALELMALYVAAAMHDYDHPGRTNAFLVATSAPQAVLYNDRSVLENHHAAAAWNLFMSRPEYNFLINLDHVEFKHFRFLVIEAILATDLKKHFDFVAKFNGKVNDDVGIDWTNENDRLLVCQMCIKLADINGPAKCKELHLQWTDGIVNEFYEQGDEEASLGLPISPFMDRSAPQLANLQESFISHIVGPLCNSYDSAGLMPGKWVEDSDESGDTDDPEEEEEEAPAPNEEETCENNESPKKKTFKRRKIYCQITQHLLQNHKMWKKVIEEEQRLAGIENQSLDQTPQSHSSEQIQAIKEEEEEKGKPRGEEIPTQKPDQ

COCCOCCO[C@@H]1[C@@H](OP(=O)(O)O)[C@H](OCCOCCOC)[C@@H](OP(=O)(O)O)[C@@H](OP(=O)(O)O)[C@H]1OP(=O)(O)O [(OEG2)2-IP4, 4,6-Di-O-(methoxy-diethyleneglycol)-myo-inositol-1,2,3,5-tetrakis(phosphate)]
inhibition at 10 µM (Phosphodiesterase PDE3): -1% | inhibition at 10 µM (Histamine H2): -6% | animals alive (Figure 5d) (vascular calcification; 1x12.5, Day 0): 12 | survival (Figure 5d) (vascular calcification; 1x12.5, Day 0): 100% | animals alive (Figure 5d) (vascular calcification; 1x12.5, Day 4.99): 12 | survival (Figure 5d) (vascular calcification; 1x12.5, Day 4.99): 100% | animals alive (Figure 5d) (vascular calcification; 1x12.5, Day 5.01): 11 | survival (Figure 5d) (vascular calcification; 1x12.5, Day 5.01): 92% | animals alive (Figure 5d) (vascular calcification; 1x12.5, Day 5.99): 11 | survival (Figure 5d) (vascular calcification; 1x12.5, Day 5.99): 92% | animals alive (Figure 5d) (vascular calcification; 1x12.5, Day 6.01): 9 | survival (Figure 5d) (vascular calcification; 1x12.5, Day 6.01): 75% | animals alive (Figure 5d) (vascular calcification; 1x12.5, Day 6.99): 9 | survival (Figure 5d) (vascular calcification; 1x12.5, Day 6.99): 75% | animals alive (Figure 5d) (vascular calcification; 1x12.5, Day 7.01): 7 | survival (Figure 5d) (vascular calcification; 1x12.5, Day 7.01): 58% | animals alive (Figure 5d) (vascular calcification; 1x12.5, Day 7.99): 7 | survival (Figure 5d) (vascular calcification; 1x12.5, Day 7.99): 58% | animals alive (Figure 5d) (vascular calcification; 1x12.5, Day 8.01): 7 | survival (Figure 5d) (vascular calcification; 1x12.5, Day 8.01): 58% | animals alive (Figure 5d) (vascular calcification; 1x12.5, Day 8.1): 7 | survival (Figure 5d) (vascular calcification; 1x12.5, Day 8.1): 58% | calcification in the femoral artery (vascular calcification; 1x12.5 to 2x50 mg/kg/day): dose-dependently prevents calcification in the femoral artery | animals alive (Figure 5d) (vascular calcification; 1x25, Day 0): 12 | survival (Figure 5d) (vascular calcification; 1x25, Day 0): 100% | animals alive (Figure 5d) (vascular calcification; 1x25, Day 4.99): 12 | survival (Figure 5d) (vascular calcification; 1x25, Day 4.99): 100% | animals alive (Figure 5d) (vascular calcification; 1x25, Day 5.01): 12 | survival (Figure 5d) (vascular calcification; 1x25, Day 5.01): 100% | animals alive (Figure 5d) (vascular calcification; 1x25, Day 5.99): 12 | survival (Figure 5d) (vascular calcification; 1x25, Day 5.99): 100% | animals alive (Figure 5d) (vascular calcification; 1x25, Day 6.01): 10 | survival (Figure 5d) (vascular calcification; 1x25, Day 6.01): 83% | animals alive (Figure 5d) (vascular calcification; 1x25, Day 6.99): 10 | survival (Figure 5d) (vascular calcification; 1x25, Day 6.99): 83% | animals alive (Figure 5d) (vascular calcification; 1x25, Day 7.01): 8 | survival (Figure 5d) (vascular calcification; 1x25, Day 7.01): 67% | animals alive (Figure 5d) (vascular calcification; 1x25, Day 7.99): 8 | survival (Figure 5d) (vascular calcification; 1x25, Day 7.99): 67% | animals alive (Figure 5d) (vascular calcification; 1x25, Day 8.01): 8 | survival (Figure 5d) (vascular calcification; 1x25, Day 8.01): 67% | animals alive (Figure 5d) (vascular calcification; 1x25, Day 8.1): 8 | survival (Figure 5d) (vascular calcification; 1x25, Day 8.1): 67% | animals alive (Figure 5d) (vascular calcification; 1x50, Day 0): 19 | survival (Figure 5d) (vascular calcification; 1x50, Day 0): 100% | animals alive (Figure 5d) (vascular calcification; 1x50, Day 4.99): 19 | survival (Figure 5d) (vascular calcification; 1x50, Day 4.99): 100% | animals alive (Figure 5d) (vascular calcification; 1x50, Day 5.01): 19 | survival (Figure 5d) (vascular calcification; 1x50, Day 5.01): 100% | animals alive (Figure 5d) (vascular calcification; 1x50, Day 5.99): 19 | survival (Figure 5d) (vascular calcification; 1x50, Day 5.99): 100% | animals alive (Figure 5d) (vascular calcification; 1x50, Day 6.01): 19 | survival (Figure 5d) (vascular calcification; 1x50, Day 6.01): 100% | animals alive (Figure 5d) (vascular calcification; 1x50, Day 6.99): 19 | survival (Figure 5d) (vascular calcification; 1x50, Day 6.99): 100% | animals alive (Figure 5d) (vascular calcification; 1x50, Day 7.01): 17 | survival (Figure 5d) (vascular calcification; 1x50, Day 7.01): 89% | animals alive (Figure 5d) (vascular calcification; 1x50, Day 7.99): 17 | survival (Figure 5d) (vascular calcification; 1x50, Day 7.99): 89% | animals alive (Figure 5d) (vascular calcification; 1x50, Day 8.01): 15 | survival (Figure 5d) (vascular calcification; 1x50, Day 8.01): 79% | animals alive (Figure 5d) (vascular calcification; 1x50, Day 8.1): 15 | survival (Figure 5d) (vascular calcification; 1x50, Day 8.1): 79% | survival (vascular calcification; 2 x 25 mg/kg s.c.): 100% | animals alive (Figure 5d) (vascular calcification; 2x25, Day 0): 18 | survival (Figure 5d) (vascular calcification; 2x25, Day 0): 100% | animals alive (Figure 5d) (vascular calcification; 2x25, Day 4.99): 18 | survival (Figure 5d) (vascular calcification; 2x25, Day 4.99): 100% | animals alive (Figure 5d) (vascular calcification; 2x25, Day 5.01): 18 | survival (Figure 5d) (vascular calcification; 2x25, Day 5.01): 100% | animals alive (Figure 5d) (vascular calcification; 2x25, Day 5.99): 18 | survival (Figure 5d) (vascular calcification; 2x25, Day 5.99): 100% | animals alive (Figure 5d) (vascular calcification; 2x25, Day 6.01): 18 | survival (Figure 5d) (vascular calcification; 2x25, Day 6.01): 100% | animals alive (Figure 5d) (vascular calcification; 2x25, Day 6.99): 18 | survival (Figure 5d) (vascular calcification; 2x25, Day 6.99): 100% | animals alive (Figure 5d) (vascular calcification; 2x25, Day 7.01): 18 | survival (Figure 5d) (vascular calcification; 2x25, Day 7.01): 100% | animals alive (Figure 5d) (vascular calcification; 2x25, Day 7.99): 18 | survival (Figure 5d) (vascular calcification; 2x25, Day 7.99): 100% | animals alive (Figure 5d) (vascular calcification; 2x25, Day 8.01): 18 | survival (Figure 5d) (vascular calcification; 2x25, Day 8.01): 100% | animals alive (Figure 5d) (vascular calcification; 2x25, Day 8.1): 18 | survival (Figure 5d) (vascular calcification; 2x25, Day 8.1): 100% | animals alive (Figure 5d) (vascular calcification; 2x50, Day 0): 19 | survival (Figure 5d) (vascular calcification; 2x50, Day 0): 100% | animals alive (Figure 5d) (vascular calcification; 2x50, Day 4.99): 19 | survival (Figure 5d) (vascular calcification; 2x50, Day 4.99): 100% | animals alive (Figure 5d) (vascular calcification; 2x50, Day 5.01): 19 | survival (Figure 5d) (vascular calcification; 2x50, Day 5.01): 100% | animals alive (Figure 5d) (vascular calcification; 2x50, Day 5.99): 19 | survival (Figure 5d) (vascular calcification; 2x50, Day 5.99): 100% | animals alive (Figure 5d) (vascular calcification; 2x50, Day 6.01): 19 | survival (Figure 5d) (vascular calcification; 2x50, Day 6.01): 100% | animals alive (Figure 5d) (vascular calcification; 2x50, Day 6.99): 19 | survival (Figure 5d) (vascular calcification; 2x50, Day 6.99): 100% | animals alive (Figure 5d) (vascular calcification; 2x50, Day 7.01): 17 | survival (Figure 5d) (vascular calcification; 2x50, Day 7.01): 89% | animals alive (Figure 5d) (vascular calcification; 2x50, Day 7.99): 17 | survival (Figure 5d) (vascular calcification; 2x50, Day 7.99): 89% | animals alive (Figure 5d) (vascular calcification; 2x50, Day 8.01): 16 | survival (Figure 5d) (vascular calcification; 2x50, Day 8.01): 84% | animals alive (Figure 5d) (vascular calcification; 2x50, Day 8.1): 16 | survival (Figure 5d) (vascular calcification; 2x50, Day 8.1): 84% | bulk calcium in carotid artery and femoral artery (vascular calcification; 2 × 25 mg/kg/day): significant reduction in bulk calcium | Mortality rate (vascular calcification; 2 × 25 mg/kg/day s.c. (0/18)): 0%
